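A five-concentration, 48-hour dose response in 96-well plates underlies each endpoint, interpolated linearly between surrounding concentrations. GI50: concentration for 50% inhibition of growth.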 Active and inactive are the calls of the source. Cut-off read from the data, not from the text of the source: active = GI50 up to about 1.1 µM and inactive = higher.
Experiments:
Experiment in all cases: DTP human tumour cell line panel, 48 h
Malme-3M = tested on: Malme-3M
OVCAR-8 = tested on: OVCAR-8
CCRF-CEM = tested on: CCRF-CEM
DU-145 = tested on: DU-145
OVCAR-4 = tested on: OVCAR-4
CAKI-1 = tested on: CAKI-1
HOP-92 = tested on: HOP-92
A498 = tested on: A498
HOP-62 = tested on: HOP-62
NCI-H460 = tested on: NCI-H460
MCF7 = tested on: MCF7
RPMI-8226 = tested on: RPMI-8226
HCC 2998 = tested on: HCC 2998
TK-10 = tested on: TK-10
SK-MEL-2 = tested on: SK-MEL-2
UACC-257 = tested on: UACC-257
UACC-62 = tested on: UACC-62
ACHN = tested on: ACHN
NCI-H522 = tested on: NCI-H522
HCT-116 = tested on: HCT-116
KM12 = tested on: KM12
Hs-578T = tested on: Hs-578T
SN12C = tested on: SN12C
UO-31 = tested on: UO-31
SF-268 = tested on: SF-268
SNB-19 = tested on: SNB-19
RXF 393 = tested on: RXF 393
SR = tested on: SR
HCT-15 = tested on: HCT-15
SW-620 = tested on: SW-620
U-251 = tested on: U-251
K562 = tested on: K562
MDA-MB-231 = tested on: MDA-MB-231
NCI/ADR-RES = tested on: NCI/ADR-RES
NCI-H23 = tested on: NCI-H23
OVCAR-5 = tested on: OVCAR-5
PC-3 = tested on: PC-3
BT-549 = tested on: BT-549
NCI-H226 = tested on: NCI-H226
A549 = tested on: A549
786-0 = tested on: 786-0
EKVX = tested on: EKVX
SNB-75 = tested on: SNB-75
OVCAR-3 = tested on: OVCAR-3
HT-29 = tested on: HT-29
SK-OV-3 = tested on: SK-OV-3
IGROV-1 = tested on: IGROV-1
SF-295 = tested on: SF-295
SK-MEL-5 = tested on: SK-MEL-5
MDA-MB-435 = tested on: MDA-MB-435
SK-MEL-28 = tested on: SK-MEL-28
M14 = tested on: M14
COLO 205 = tested on: COLO 205
T47D = tested on: T47D
LOX IMVI = tested on: LOX IMVI
SF-539 = tested on: SF-539
HL-60 = tested on: HL-60
MDA-N = tested on: MDA-N
MOLT-4 = tested on: MOLT-4

Measured: GI50

O=C(Cn1ccnc1[N+](=O)[O-])NCCO [ETANIDAZOLE]
inactive: Malme-3M > 100 µM | OVCAR-8 > 100 µM | CCRF-CEM > 100 µM | DU-145 > 100 µM | OVCAR-4 > 100 µM | CAKI-1 > 100 µM | HOP-92 > 100 µM | A498 > 100 µM | HOP-62 > 100 µM | NCI-H460 27.5 µM | MCF7 > 100 µM | RPMI-8226 > 100 µM | HCC 2998 41.8 µM | TK-10 > 100 µM | SK-MEL-2 > 100 µM | UACC-257 56.5 µM | UACC-62 > 100 µM | ACHN > 100 µM | NCI-H522 > 100 µM | HCT-116 > 100 µM | KM12 > 100 µM | Hs-578T > 100 µM | SN12C > 100 µM | UO-31 > 100 µM | SF-268 > 100 µM | SNB-19 > 100 µM | RXF 393 > 100 µM | SR > 100 µM | SW-620 > 100 µM | U-251 > 100 µM | K562 > 100 µM | MDA-MB-231 > 100 µM | NCI/ADR-RES > 100 µM | NCI-H23 > 100 µM | OVCAR-5 > 100 µM | PC-3 > 100 µM | BT-549 > 100 µM | NCI-H226 > 100 µM | A549 > 100 µM | 786-0 > 100 µM | EKVX > 100 µM | SNB-75 > 100 µM | OVCAR-3 > 100 µM | HT-29 > 100 µM | SK-OV-3 > 100 µM | IGROV-1 > 100 µM | SF-295 > 100 µM | SK-MEL-5 > 100 µM | MDA-MB-435 > 100 µM | SK-MEL-28 > 100 µM | M14 > 100 µM | COLO 205 > 100 µM | T47D > 100 µM | LOX IMVI > 100 µM | SF-539 > 100 µM | HL-60 > 100 µM
> 100 µM: HCT-15

CCCCCc1c(CCCC)c(O)nc2nc(NC(=O)CCCC)ccc12
> 100 µM: HCT-15
inactive: Malme-3M > 100 µM | OVCAR-8 > 100 µM | CCRF-CEM > 100 µM | OVCAR-4 > 100 µM | CAKI-1 > 100 µM | HOP-92 > 100 µM | A498 > 100 µM | HOP-62 > 100 µM | NCI-H460 > 100 µM | MCF7 > 100 µM | RPMI-8226 > 100 µM | HCC 2998 > 100 µM | TK-10 > 100 µM | SK-MEL-2 > 100 µM | MDA-N > 100 µM | UACC-257 > 100 µM | ACHN > 100 µM | NCI-H522 > 100 µM | HCT-116 > 100 µM | KM12 > 100 µM | SN12C > 100 µM | UO-31 > 100 µM | SF-268 > 100 µM | SNB-19 > 100 µM | RXF 393 > 100 µM | SR 51.9 µM | SW-620 > 100 µM | U-251 > 100 µM | K562 > 100 µM | MDA-MB-231 > 100 µM | NCI/ADR-RES > 100 µM | MOLT-4 > 100 µM | NCI-H23 > 100 µM | OVCAR-5 > 100 µM | PC-3 > 100 µM | BT-549 > 100 µM | NCI-H226 > 100 µM | A549 > 100 µM | 786-0 > 100 µM | EKVX > 100 µM | SNB-75 > 100 µM | OVCAR-3 > 100 µM | SK-OV-3 > 100 µM | IGROV-1 > 100 µM | SF-295 > 100 µM | SK-MEL-5 > 100 µM | MDA-MB-435 > 100 µM | SK-MEL-28 > 100 µM | M14 > 100 µM | COLO 205 > 100 µM | T47D > 100 µM | LOX IMVI > 100 µM | SF-539 > 100 µM

CC(C)=NN/C=N\C(C#N)=C(/N)C#N
active: HCC 2998 0.262 µM | SNB-75 0.466 µM
> 100 µM: HCT-15
inactive: Malme-3M 69.2 µM | OVCAR-8 > 100 µM | CCRF-CEM > 100 µM | DU-145 > 100 µM | OVCAR-4 > 100 µM | CAKI-1 > 100 µM | HOP-62 > 100 µM | NCI-H460 > 100 µM | MCF7 > 100 µM | RPMI-8226 > 100 µM | TK-10 > 100 µM | SK-MEL-2 > 100 µM | UACC-257 > 100 µM | UACC-62 > 100 µM | ACHN > 100 µM | NCI-H522 > 100 µM | HCT-116 78.9 µM | UO-31 > 100 µM | SF-268 > 100 µM | SNB-19 > 100 µM | RXF 393 > 100 µM | SR > 100 µM | SW-620 > 100 µM | U-251 > 100 µM | K562 > 100 µM | NCI/ADR-RES > 100 µM | MOLT-4 > 100 µM | NCI-H23 > 100 µM | OVCAR-5 > 100 µM | PC-3 > 100 µM | BT-549 > 100 µM | NCI-H226 > 100 µM | A549 > 100 µM | 786-0 > 100 µM | EKVX > 100 µM | OVCAR-3 > 100 µM | HT-29 > 100 µM | SK-OV-3 > 100 µM | IGROV-1 > 100 µM | SF-295 > 100 µM | SK-MEL-5 25.8 µM | SK-MEL-28 > 100 µM | M14 > 100 µM | COLO 205 > 100 µM | SF-539 > 100 µM | HL-60 > 100 µM

COc1ccc(OC)c(C(=O)c2cccc(C(=O)c3cc(OC)ccc3OC)n2)c1
inactive: Malme-3M 80 µM | OVCAR-8 50.1 µM | CCRF-CEM 46.8 µM | DU-145 93.1 µM | OVCAR-4 > 100 µM | CAKI-1 71.8 µM | HOP-62 37.1 µM | NCI-H460 36.3 µM | MCF7 26.5 µM | HCC 2998 46.9 µM | TK-10 35.5 µM | SK-MEL-2 23 µM | MDA-N 17 µM | UACC-257 53.2 µM | UACC-62 31.1 µM | ACHN 43.5 µM | NCI-H522 29.8 µM | HCT-116 43.9 µM | KM12 33.9 µM | Hs-578T 27 µM | SN12C 57.1 µM | UO-31 17.9 µM | SF-268 63.4 µM | SNB-19 43.3 µM | RXF 393 5.12 µM | SR 32.7 µM | SW-620 39.6 µM | U-251 27.4 µM | K562 22.3 µM | MDA-MB-231 58.7 µM | NCI/ADR-RES 29 µM | MOLT-4 30.8 µM | NCI-H23 20 µM | OVCAR-5 30.5 µM | PC-3 33.6 µM | BT-549 22.9 µM | NCI-H226 27.3 µM | A549 42.9 µM | 786-0 68.9 µM | EKVX 41.1 µM | SNB-75 19.9 µM | HT-29 35.7 µM | SK-OV-3 46.1 µM | IGROV-1 38.8 µM | SF-295 29.9 µM | SK-MEL-5 15 µM | SK-MEL-28 41 µM | M14 33.6 µM | COLO 205 32.1 µM | T47D 29.6 µM | LOX IMVI 25.5 µM | SF-539 28.6 µM | HL-60 18.5 µM
33.1 µM: HCT-15

COc1ccc(C2c3cc4c(cc3OC(N3CCOCC3)C2C)OCO4)cc1 (stereo not given)
24.5 µM: HCT-15
inactive: Malme-3M 7.38 µM | OVCAR-8 34.7 µM | CCRF-CEM 20.3 µM | DU-145 27.7 µM | OVCAR-4 37.8 µM | CAKI-1 19.3 µM | HOP-92 4.14 µM | A498 6.03 µM | HOP-62 22.5 µM | NCI-H460 26.1 µM | MCF7 26.1 µM | RPMI-8226 15.3 µM | HCC 2998 22.4 µM | TK-10 29.1 µM | SK-MEL-2 22.4 µM | MDA-N 16.9 µM | UACC-257 21.9 µM | UACC-62 27.6 µM | ACHN 21.4 µM | NCI-H522 30 µM | HCT-116 20.2 µM | KM12 23.4 µM | Hs-578T 15.3 µM | SN12C 37.3 µM | UO-31 19.9 µM | SF-268 27.9 µM | SNB-19 27.9 µM | RXF 393 19.1 µM | SR 15.1 µM | SW-620 29.1 µM | U-251 18 µM | K562 12.8 µM | NCI/ADR-RES 23.2 µM | MOLT-4 12 µM | NCI-H23 39 µM | OVCAR-5 34.8 µM | PC-3 22.3 µM | BT-549 20.3 µM | A549 23.2 µM | 786-0 23.8 µM | EKVX 23.9 µM | SNB-75 35.9 µM | OVCAR-3 20.8 µM | HT-29 25.8 µM | IGROV-1 30.3 µM | SF-295 15.1 µM | SK-MEL-5 22.6 µM | MDA-MB-435 20.7 µM | SK-MEL-28 28.6 µM | M14 26.9 µM | COLO 205 27.2 µM | T47D 7.96 µM | LOX IMVI 24.1 µM | SF-539 21.4 µM | HL-60 21.1 µM

From ChEMBL document CHEMBL1201862, “PubChem BioAssay data set” (2004)
